US8158186B2, “2-methylthioethyl-substituted heterocycles as feed additives” (Evonik Degussa GmbH, priority 2007, dated 2012)
Like-named read-outs stand apart in the source and are kept apart here.

What was measured:
[1] = cited from earlier work
[2] = European Commission report, 25 Apr. 2003; cited from earlier work
[3] = published in WO 00/28835, ruminants

Structure (SMILES) | melting point [°C] | biological value [1, 3] | other results
CSCCC(N)C(=O)OC(C)(C)C (racemic) [D,L-tert-butylmethionine, reference compound] | – | 80% | –
CSCCC(O)C(=O)OC(C)C (centres unmarked) [HMBi] | – | at least 50% | biological value ([1]; published in EP 1358805, HMBi applied to a porous carrier, compared with the at least 50% of WO 00/28835): comparable; HMBi absorbed through the rumen wall [2]: approximately 50%
CSCCC1OC(c2ccccc2)NC1=O (centres unmarked) [compound 12, 5-(2-(methylthio)ethyl)-2-phenyloxazolidin-4-one] | 130 | – | –

The next lines start with results.

melting point [°C] | Structure (SMILES) | biological value [1, 3] | other results
84 | CSCCC1OC(C)(C)NC1=O (centres unmarked) [compound 10, 2,2-dimethyl-5-(2-(methylthio)ethyl)oxazolidin-4-one] | – | –
62 | CCC1(C)NC(=O)C(CCSC)O1 (centres unmarked) [compound 13, 2-ethyl-2-methyl-5-(2-(methylthio)ethyl)oxazolidin-4-one] | – | –
109 | CSCCC1OC2(CCCCC2)NC1=O (centres unmarked) [compound 14, 2-(2-(methylthio)ethyl)-1-oxa-4-azaspiro[4.5]decan-3-one] | – | –
